The results in this text go back to patent US20040192611A1, “Peptide antioxidants from soy protein” (Kraft Foods Holdings, Inc., priority 2003, published 2004).

This assay in a line: Antioxidant activity of soy-derived peptides isolated by HPLC (assay not specified). As to conditions: qualitative statement. The text has this: In another aspect, the invention is directed to a method of producing a peptide with antioxidant activity. The peptide is made by digesting soy protein isolate (available commercially, e.g., from Protein Technology International, St. Louis, Mo., or using procedures well established in the art) with a protease to produce an aqueous hydrolysate solution. Proteases that may be used for digestion include chymosin, papain, neutrase, promod, and flavozyme and, preferably, either alcalase or corolase. The protease may come from bacterial, plant or fungal sources. The aqueous hydrolysate solution is extracted with an organic solvent, preferably acetone, and the organic phase is selected for further processing. After extraction, solvent may be removed under reduced pressure to concentrate the peptide and the preparation is then fractionated by reverse phase high pressure liquid chromatography (HPLC). Fractions collected during this process may be assayed for antioxidant activity using methods such as those described in the Examples section herein. The identification of fractions containing the peptide may be based upon the presence of antioxidant activity and upon retention time during chromatography. The identity of the peptide within fractions can be confirmed by sequence analysis.
After recovering peptide from the extraction, reverse phase high pressure liquid chromatography may be performed using, for example, a C18 column. […] Fractions collected from the column may be tested for antioxidant activity to identify peaks that are of interest. Finally, specific peptides may be identified by carrying out sequencing experiments.
Fractions with antioxidant activity are collected and subjected to further purification. This is carried out using the mobile phases:
Fractions with antioxidant activity are collected and subject to further purification. In this case, the same mobile phases are used. The flow rate is set at 0.4 ml/min and ultraviolet absorbance is set at 275 nm. The gradient elution program is set as follows: […]
Take WWMY (Glycine max): the antioxidant activity entry is reported as “found to have antioxidant activity”.

As to SWWPF (Glycine max), the antioxidant activity entry was “found to have antioxidant activity”.

In the case of WTY, the antioxidant activity entry is “found to have antioxidant activity”.
